The compounds below were run against T1, USP28 (His-tagged USP28-FL-mammalian) (Homo sapiens, UniProt Q96RU2) (assay: Ubiquitin-Rhodamine 110 Assay for USP28 Activity, Example A-1(a)). Details: Ubiquitin-Rhodamine 110 assay, Example A-1(a); read-out: USP28 A-1(a) IC50 range.
T1 construct: Expression of USP28 (1-1077)-TEV-6*His (pTT5 vector); made in house; host or cells: Expi293f cells (pTT5 vector)
T1 sequence (Q96RU2 1-1077): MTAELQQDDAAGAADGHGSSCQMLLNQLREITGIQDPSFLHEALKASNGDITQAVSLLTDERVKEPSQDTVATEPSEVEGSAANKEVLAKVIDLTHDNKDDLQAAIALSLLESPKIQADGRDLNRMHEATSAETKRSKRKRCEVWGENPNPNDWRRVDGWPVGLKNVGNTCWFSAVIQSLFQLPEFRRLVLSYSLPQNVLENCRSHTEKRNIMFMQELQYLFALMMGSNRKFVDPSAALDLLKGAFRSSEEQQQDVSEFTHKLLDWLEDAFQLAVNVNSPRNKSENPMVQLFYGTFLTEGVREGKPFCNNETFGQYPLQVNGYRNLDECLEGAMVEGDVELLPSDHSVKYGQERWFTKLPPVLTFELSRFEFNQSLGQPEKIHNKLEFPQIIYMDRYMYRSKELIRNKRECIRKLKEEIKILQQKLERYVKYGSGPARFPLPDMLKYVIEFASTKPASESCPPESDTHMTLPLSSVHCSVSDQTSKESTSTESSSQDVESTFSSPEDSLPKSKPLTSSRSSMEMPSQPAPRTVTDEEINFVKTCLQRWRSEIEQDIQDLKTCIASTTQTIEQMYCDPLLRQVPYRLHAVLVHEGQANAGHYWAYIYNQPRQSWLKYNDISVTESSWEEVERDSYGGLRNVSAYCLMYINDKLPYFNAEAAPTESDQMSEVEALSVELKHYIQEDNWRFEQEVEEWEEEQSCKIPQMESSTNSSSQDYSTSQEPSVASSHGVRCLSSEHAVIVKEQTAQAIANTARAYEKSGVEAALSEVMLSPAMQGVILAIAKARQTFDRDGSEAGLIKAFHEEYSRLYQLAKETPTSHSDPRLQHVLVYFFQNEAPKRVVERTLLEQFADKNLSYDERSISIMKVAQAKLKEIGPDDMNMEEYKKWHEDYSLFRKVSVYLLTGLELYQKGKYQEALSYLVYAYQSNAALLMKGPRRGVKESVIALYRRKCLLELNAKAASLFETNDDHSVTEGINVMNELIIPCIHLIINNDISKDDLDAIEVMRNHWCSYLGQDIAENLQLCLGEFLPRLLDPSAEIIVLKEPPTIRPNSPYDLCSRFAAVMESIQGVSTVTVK
Type: biochemical
Description: Example A-1(a): Biochemical Assay: Ubiquitin-Rhodamine 110 Assay for USP28 Activity
The assay was performed in a final volume of 9 μL in assay buffer containing 20 mM Tris-HCl (pH 8.0, (1M Tris-HCl, pH 8.0 solution; Corning 46-031-CM)), 3 mM BME (2-Mercaptoethanol; Sigma 63689-25ML-F), 0.03% BGG (0.22 μM filtered, Sigma, G7516-25G), and 0.01% Triton X-100 (Sigma, T9284-10L). Nanoliter quantities of 10-point, 3-fold serial dilution in DMSO was pre-dispensed into 1536 assay plates (Corning, #3724BC) for a final test concentration of 25 μM to 1.3 nM, top to lowest dose, respectively. Enzyme USP28, construct His-tagged USP28-FL-mammalian, (protein expression and purification procedure described below). Concentration and incubation times were optimized for the maximal signal-to-background while maintaining initial velocity conditions at a fixed substrate concentration. The final concentration of the enzyme in the assay was 75 μM. Final substrate (Ub-Rh110; Ubiquitin-Rhodamine 110, UbiQ-126) concentration was 25 nM with [Ub-Rh110]<<Km. 3 μL of 2× enzyme was added to assay plates (pre-stamped with compound) preincubated with […] for 30 minutes and then 3 μL of 2×Ub-Rh110 was added to assay plates. Plates were incubated for 45 minutes at room temperature before addition of 3 μL of stop solution (final concentration of 10 mM citric acid (Sigma, 251275-500G)). Fluorescence was read on the Envision (Excitation at 485 nm and Emission at 535 nm; Perkin Elmer) or on the PheraSTAR (Excitation at 485 nm and Emission at 535 nm; BMG Labtech).
Procedure for the Protein Expression and Purification for Construct His-Tagged USP28-FL-Mammalian
Expression of USP28 (1-1077)-TEV-6*His (pTT5 vector) was carried out in Expi293f cells (sequence derived from uniprot ID: Q96RU2-1). Cells were re-suspended in lysis buffer B 50 mM Bicine, pH 8.0, 20 mM NaCl, 5% glycerol, 0.1% CHAPS, 5 mM β-ME, 1 mM PMSF, 1 ug/ml Leupeptin, 1 ug/ml Pepstatin) and lysed by sonication. Insoluble material was removed by centrifugation and the supernatant was loaded onto a Ni-NTA column (GE Healthcare) equilibrated with Ni Buffer A (50 mM Bicine, pH 8.0, 20 mM NaCl, 5% glycerol, 0.1% CHAPS, 5 mM β-ME.) and washed with Ni Buffer A+20 mM imidazole until A280 reached baseline. The protein was eluted with Ni Buffer B (50 mM Bicine, pH 8.0, 20 mM NaCl, 5% glycerol, 0.1% CHAPS, 5 mM β-ME, 300 mM imidazole.). The protein was further purified using a Superdex™ 200 10/300 GL column (GE Healthcare) equilibrated with 50 mM Bicine, pH 8.0, 20 mM NaCl, 5% glycerol, 0.1% CHAPS, 5 mM β-ME. The protein was concentrated to 2.5 mg ml^−1, flash-frozen in liquid N2 and stored at −80° C.
For assay formats Example A-1(a), A-1(b), and A-2, data were reported as percent inhibition compared with control wells based on the following equation: % inh=1−((FLU−AveLow)/(AveHigh−AveLow)) where FLU=measured Fluorescence, AveLow=average Fluorescence of no enzyme control (n=16), and AveHigh=average Fluorescence of DMSO control (n=16). IC50 values were determined by curve fitting of the standard 4 parameter logistic fitting algorithm included in the Activity Base software package: IDBS XE Designer Model 205. Data is fitted using the Levenburg Marquardt algorithm.

| SMILES | IC50 |
| --- | --- |
| Cc1ccc2c(N)c(C(=O)N[C@H]3CCc4nc(N5C[C@@H](N)[C@H](C(F)F)C5)ncc4C3)sc2n1 [Example 381, 3-amino-N-[(6S)-2-[(3S,4R)-3-amino-4-(difluoromethyl)pyrrolidin-1-yl]-5,6,7,8-tetrahydroquinazolin-6-yl]-6-methylthieno[2,3-b]pyridine-2-carboxamide] | 200 to 2000 nM |
| Cc1ccc2c(N)c(C(=O)N[C@@H]3CCc4nc(N5C[C@@H](N)[C@H](C(F)F)C5)ncc4C3)sc2n1 [Example 382, 3-amino-N-[(6R)-2-[(3S,4R)-3-amino-4-(difluoromethyl)pyrrolidin-1-yl]-5,6,7,8-tetrahydroquinazolin-6-yl]-6-methylthieno[2,3-b]pyridine-2-carboxamide] | 200 to 2000 nM |
| Cc1ccc2c(N)c(C(=O)N[C@@H]3CCc4nc(N5C[C@H](C(F)F)[C@@H](N)C5)ncc4C3)sc2n1 [Example 383, 3-amino-N-[(6R)-2-[(3R,4S)-3-amino-4-(difluoromethyl)pyrrolidin-1-yl]-5,6,7,8-tetrahydroquinazolin-6-yl]-6-methylthieno[2,3-b]pyridine-2-carboxamide] | > 2000 nM |
| Cc1ccc2c(N)c(C(=O)N[C@H]3CCc4nc(N5C[C@H](CF)[C@@H](N)C5)ccc4C3)sc2n1 [Example 384, 3-amino-N-[(6S)-2-[(3R,4S)-3-amino-4-(fluoromethyl)pyrrolidin-1-yl]-5,6,7,8-tetrahydroquinolin-6-yl]-6-methylthieno[2,3-b]pyridine-2-carboxamide] | 50 to 200 nM |
| Cc1ccc2c(N)c(C(=O)N[C@H]3CCc4nc(N5C[C@@H](CF)[C@H](N)C5)ccc4C3)sc2n1 [Example 385, 3-amino-N-[(6S)-2-[(3S,4R)-3-amino-4-(fluoromethyl)pyrrolidin-1-yl]-5,6,7,8-tetrahydroquinolin-6-yl]-6-methylthieno[2,3-b]pyridine-2-carboxamide] | 50 to 200 nM |
| Cc1ccc2c(N)c(C(=O)N[C@H]3CCc4nc(N5CC[C@](N)(CO)C5)ccc4C3)sc2n1 [Example 386, 3-amino-N-[(6S)-2-[(3R)-3-amino-3-(hydroxymethyl)pyrrolidin-1-yl]-5,6,7,8-tetrahydroquinolin-6-yl]-6-methylthieno[2,3-b]pyridine-2-carboxamide] | 50 to 200 nM |
| Cc1ccc2c(N)c(C(=O)N[C@H]3CCc4nc(N5CC[C@@](N)(CO)C5)ccc4C3)sc2n1 [Example 387, 3-amino-N-[(6S)-2-[(3S)-3-amino-3-(hydroxymethyl)pyrrolidin-1-yl]-5,6,7,8-tetrahydroquinolin-6-yl]-6-methylthieno[2,3-b]pyridine-2-carboxamide] | 50 to 200 nM |
| COC[C@@]1(N)CCN(c2ccc3c(n2)CC[C@H](NC(=O)c2sc4nc(C)ccc4c2N)C3)C1 [Example 388, 3-amino-N-[(6S)-2-[(3R)-3-amino-3-(methoxymethyl)pyrrolidin-1-yl]-5,6,7,8-tetrahydroquinolin-6-yl]-6-methylthieno[2,3-b]pyridine-2-carboxamide] | 50 to 200 nM |
| COC[C@]1(N)CCN(c2ccc3c(n2)CC[C@H](NC(=O)c2sc4nc(C)ccc4c2N)C3)C1 [Example 389, 3-amino-N-[(6S)-2-[(3S)-3-amino-3-(methoxymethyl)pyrrolidin-1-yl]-5,6,7,8-tetrahydroquinolin-6-yl]-6-methylthieno[2,3-b]pyridine-2-carboxamide] | 50 to 200 nM |
| Cc1ccc2c(N)c(C(=O)N[C@H]3CCc4nc(N5C[C@@H]6COC[C@]6(N)C5)ccc4C3)sc2n1 [Example 394, N-[(6S)-2-[(3aR,6aS)-3a-amino-hexahydro-1H-furo[3,4-c]pyrrol-5-yl]-5,6,7,8-tetrahydroquinolin-6-yl]-3-amino-6-methylthieno[2,3-b]pyridine-2-carboxamide] | 50 to 200 nM |
| Cc1ccc2c(N)c(C(=O)N[C@H]3CCc4nc(N5C[C@H]6COC[C@@]6(N)C5)ccc4C3)sc2n1 [Example 395, N-[(6S)-2-[(3aS,6aR)-3a-amino-hexahydro-1H-furo[3,4-c]pyrrol-5-yl]-5,6,7,8-tetrahydroquinolin-6-yl]-3-amino-6-methylthieno[2,3-b]pyridine-2-carboxamide] | 50 to 200 nM |
| Cc1ccc2c(N)c(C(=O)N[C@H]3CCc4nc(N5C[C@H]6COC[C@@H](C5)[C@H]6N)ccc4C3)sc2n1 [Example 396, 3-amino-6-methyl-N-[(6S)-2-[(1R,5S,9r)-9-amino-3-oxa-7-azabicyclo[3.3.1]nonan-7-yl]-5,6,7,8-tetrahydroquinolin-6-yl]thieno[2,3-b]pyridine-2-carboxamide] | 50 to 200 nM |
| Cc1ccc2c(N)c(C(=O)N[C@H]3CCc4nc(N5C[C@H]6COC[C@@H](C5)[C@@H]6N)ccc4C3)sc2n1 [Example 397, 3-amino-6-methyl-N-[(6S)-2-[(1R,5S,9s)-9-amino-3-oxa-7-azabicyclo[3.3.1]nonan-7-yl]-5,6,7,8-tetrahydroquinolin-6-yl]thieno[2,3-b]pyridine-2-carboxamide] | 50 to 200 nM |
| Cc1ccc2c(N)c(C(=O)N[C@H]3CCc4nc(N5CC6(C[C@@H](N)CO6)C5)ccc4C3)sc2n1 [Example 398, 3-amino-N-[(6S)-2-[(7R)-7-amino-5-oxa-2-azaspiro[3.4]octan-2-yl]-5,6,7,8-tetrahydroquinolin-6-yl]-6-methylthieno[2,3-b]pyridine-2-carboxamide] | 50 to 200 nM |
| Cc1ccc2c(N)c(C(=O)N[C@H]3CCc4nc(N5CC6(C[C@H](N)CO6)C5)ccc4C3)sc2n1 [Example 399, 3-amino-N-[(6S)-2-[(7S)-7-amino-5-oxa-2-azaspiro[3.4]octan-2-yl]-5,6,7,8-tetrahydroquinolin-6-yl]-6-methylthieno[2,3-b]pyridine-2-carboxamide] | 1 to 50 nM |
| CCn1ccc2cc(C(=O)N[C@H]3CCc4nc(N5C[C@H](NC)[C@@H](OC)C5)ccc4C3)cnc21 [Example 402, 1-ethyl-N-[(6S)-2-[(3S,4S)-3-methoxy-4-(methylamino)pyrrolidin-1-yl]-5,6,7,8-tetrahydroquinolin-6-yl]-1H-pyrrolo[2,3-b]pyridine-5-carboxamide] | 200 to 2000 nM |

Reference: patent US11524966B1 (Valo Early Discovery, Inc., priority 2017, dated 2022)
